Test results: patent US11524960B2, “Heterobicyclic inhibitors of MAT2A and methods of use for treating cancer” (AGIOS PHARMACEUTICALS, INC., priority 2018, dated 2022)
pIC50: −log10 of the molar value.

What was measured:
[1] = biological target: T1, MAT2A homodimer (Homo sapiens, UniProt P31153); assay: Biochemical assay: inhibition of MAT2A (phosphate release, PiColorLock Gold); conditions: MAT2A IC50 score; read-out: Enzyme Inhibition (Example 275)
T1 construct: inferred from Ni sepharose purification and imidazole elution; made in house; host or cells: Sf9 insect cells, recombinant baculovirus (Bac to Bac, pFASTBAC1)
T1 sequence (P31153 whole entry): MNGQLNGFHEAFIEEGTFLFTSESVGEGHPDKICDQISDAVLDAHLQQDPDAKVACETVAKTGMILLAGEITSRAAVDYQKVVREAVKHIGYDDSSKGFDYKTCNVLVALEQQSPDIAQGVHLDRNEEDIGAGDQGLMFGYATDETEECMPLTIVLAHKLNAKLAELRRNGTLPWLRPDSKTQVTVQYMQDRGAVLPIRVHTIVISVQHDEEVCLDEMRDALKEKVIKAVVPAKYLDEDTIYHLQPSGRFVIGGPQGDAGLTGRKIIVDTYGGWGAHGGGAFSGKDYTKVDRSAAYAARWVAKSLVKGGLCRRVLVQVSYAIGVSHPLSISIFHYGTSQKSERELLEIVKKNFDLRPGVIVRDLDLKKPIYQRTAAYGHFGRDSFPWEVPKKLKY
Procedure, shortened: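 Baculovirus/Sf9-expressed, Ni-purified MAT2A at 4 µg/mL was preincubated with compound for 60 min at 25 °C in 50 mM Tris pH 8.0, 50 mM KCl, 15 mM MgCl2, 0.3 mM EDTA, 0.005% BSA. Substrate mix (500 μM ATP, 400 μM L-methionine) was added and the reaction ran 60 min at 25 °C. Phosphate released stoichiometrically with SAM was measured colorimetrically against a phosphate standard curve.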

[2] = tested on: SAM in HCT116 human colon carcinoma cell line engineered to delete the MTAP gene (MTAP −/−); assay: Cellular assay of target engagement (SAM) by LC-MS/MS; assay type: cell-based; conditions: Homo sapiens, HCT-116, 72 h, IC50 score, read-out: Cell 72 h SAM Inhibition (MTAP −/−; Example 276)
Procedure, shortened: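 MTAP-deleted HCT116 cells were dosed 24 h after plating with a 10-point 3-fold compound series in DMSO, then incubated 72 h at 37 °C/5% CO2. Cells were extracted in cold 80% methanol with acetic acid and d3-SAM internal standard. SAM was quantified by LC-MS/MS MRM (m/z 399.2→250.1).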

[3] = tested on: HCT116 MTAP−/−; assay: Inhibition of cellular proliferation (Cell Titer Glo), HCT116 MTAP−/−; assay type: cell-based, human; conditions: Homo sapiens, HCT-116, 96 h, 4 days, IC50 score, read-out: 4 Day Relative Growth Inhibition (MTAP −/−; Example 277)
Procedure, shortened: (§1)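 Isogenic HCT116 lines, MTAP+/+ and MTAP−/−, treated 24 h after plating with 10-point 3-fold compound dilutions including DMSO only, then grown 4 days at 37 °C/5% CO2. Cell Titer Glo ATP luminescence, blank-subtracted and normalised to 0.2% DMSO control, gave percent change in proliferation versus log concentration.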

[4] = tested on: HCT116 MTAP+/+; assay: Inhibition of cellular proliferation (Cell Titer Glo), HCT116 MTAP+/+; assay type: cell-based, human; conditions: Homo sapiens, HCT-116, 96 h, 4 days, IC50 score, read-out: 4 Day Relative Growth Inhibition (MTAP +/+; Example 277)
Procedure, shortened: as §1

| Structure (SMILES) | pIC50 [1] | pIC50 [2] | pIC50 [3] | pIC50 [4] |
| --- | --- | --- | --- | --- |
| O=c1c(-c2ccc(C3CC3)cc2)c2nc(NCC(F)(F)F)ncc2cn1-c1ccc2ncccc2c1 [Example 168, 8-(4-cyclopropylphenyl)-6-(quinolin-6-yl)-2-((2,2,2-trifluoroethyl)amino)pyrido[4,3-d]pyrimidin-7(6)-one] | > 7.00 | > 7.00 | > 7.00 | < 5.00 |
| CCOc1ccc2cn(-c3ccc4ncn(C)c4c3)c(=O)c(-c3ccc(C(F)(F)F)cc3)c2n1 [Example 227, 2-ethoxy-6-(1-methyl-1H-benzo[d]imidazol-6-yl)-8-(4-(trifluoromethyl)phenyl)-1,6-naphthyridin-7(6H)-one] | > 7.00 | > 7.00 | > 7.00 | 5.00 to 7.00 |
| COc1ccc(-c2c(=O)n(-c3ccc(OC)cc3)cc3cnc(NCC(F)(F)F)nc23)cc1 [Example 200, 6,8-bis(4-methoxyphenyl)-2-(2,2,2-trifluoroethylamino)pyrido[4,3-d]pyrimidin-7(6H)-one] | > 7.00 | 6.00 to 7.00 | 5.00 to 7.00 | 5.00 to 7.00 |
| CCn1cnc2ccc(-n3cc4cnc(NCC(F)(F)F)nc4c(-c4ccc(Cl)cc4)c3=O)cc21 [Example 141, 8-(4-chlorophenyl)-6-(1-ethyl-1H-benzo[d]imidazol-6-yl)-2-((2,2,2-trifluoroethyl)amino)pyrido[4,3-d]pyrimidin-7(6H)-one] | > 7.00 | > 7.00 | > 7.00 | < 5.00 |
| COc1ccc(-n2cc3cnc(NCC(F)(F)F)nc3c(-c3ccc(Cl)cc3)c2=O)cc1 [Example 193, 8-(4-chlorophenyl)-6-(4-methoxyphenyl)-2-((2,2,2-trifluoroethyl)amino)pyrido[4,3-d]pyrimidin-7(6H)-one] | > 7.00 | 6.00 to 7.00 | 5.00 to 7.00 | < 5.00 |
| CCOc1ccc2cn(-c3ccc4nn(C)cc4c3)c(=O)c(-c3ccc(C(F)(F)F)nc3)c2n1 [Example 220, 2-ethoxy-6-(2-methyl-2H-indazol-5-yl)-8-(6-(trifluoromethyl)pyridin-3-yl)-1,6-naphthyridin-7(6H)-one] | > 7.00 | > 7.00 | > 7.00 | 5.00 to 7.00 |
| COc1ccc(-c2c(=O)n(-c3ccc4nccnc4c3)cc3cnc(NCC(F)(F)F)nc23)cc1 [Example 144, 8-(4-methoxyphenyl)-6-(quinoxalin-6-yl)-2-((2,2,2-trifluoroethyl)amino)pyrido[4,3-d]pyrimidin-7(6H)-one] | > 7.00 | 6.00 to 7.00 | 5.00 to 7.00 | < 5.00 |
| CCOc1ccc2cn(-c3ccc4ncccc4c3)c(=O)c(-c3ccc(OC(F)F)cc3)c2n1 [Example 230, 8-(4-(difluoromethoxy)phenyl)-2-ethoxy-6-(quinolin-6-yl)-1,6-naphthyridin-7(6H)-one] | > 7.00 | > 7.00 | > 7.00 | 5.00 to 7.00 |
| O=c1c(-c2ccc(OC(F)F)cc2)c2nc(OCC(F)(F)F)ncc2cn1-c1ccc2ncccc2c1 [Example 264, 8-(4-(difluoromethoxy)phenyl)-6-(quinolin-6-yl)-2-(2,2,2-trifluoroethoxy)pyrido[4,3-d]pyrimidin-7(6H)-one] | > 7.00 | > 7.00 | 5.00 to 7.00 | 5.00 to 7.00 |
| CCOc1ccc2cn(-c3ccc4ncn(C)c4c3)c(=O)c(-c3ccc(NC)nc3)c2n1 [Example 111-A] | > 7.00 | > 7.00 | > 7.00 | 5.00 to 7.00 |
| CCOc1ccc2cn(-c3ccc4nn(C)cc4c3)c(=O)c(-c3ccc(C(F)F)nc3)c2n1 [Example 216, 8-(6-(difluoromethyl)pyridin-3-yl)-2-ethoxy-6-(2-methyl-2H-indazol-5-yl)-1,6-naphthyridin-7(6H)-one] | > 7.00 | > 7.00 | > 7.00 | 5.00 to 7.00 |

The next lines start with the values.

| pIC50 [1] | pIC50 [2] | pIC50 [3] | pIC50 [4] | Structure (SMILES) |
| --- | --- | --- | --- | --- |
| > 7.00 | 6.00 to 7.00 | 5.00 to 7.00 | < 5.00 | CN(C)CCn1cc2cc(-n3cc4cnc(NCC(F)(F)F)nc4c(-c4ccc(Cl)cc4)c3=O)ccc2n1 [Example 137, 8-(4-chlorophenyl)-6-(2-(2-(dimethylamino)ethyl)-2H-indazol-5-yl)-2-((2,2,2-trifluoroethyl)amino)pyrido[4,3-d]pyrimidin-7(6H)-one] |
| > 7.00 | > 7.00 | > 7.00 | < 5.00 | COc1ccc(-c2c(=O)n(-c3ccc4c(c3)N(C)CCO4)cc3cnc(NCC(F)(F)F)nc23)cc1 [Example 145, 8-(4-methoxyphenyl)-6-(4-methyl-3,4-dihydro-2H-benzo[b][1,4]oxazin-6-yl)-2-((2,2,2-trifluoroethyl)amino)pyrido[4,3-d]pyrimidin-7(6H)-one] |
| > 7.00 | > 7.00 | > 7.00 | < 5.00 | CC(C)(O)Cn1cc2cc(-n3cc4cnc(NCC(F)(F)F)nc4c(-c4ccc(Cl)cc4)c3=O)ccc2n1 [Example 101-A] |
| > 7.00 | > 7.00 | > 7.00 | < 5.00 | Cc1nc2ccc(-n3cc4cnc(NCC(F)(F)F)nc4c(-c4ccc(Cl)cc4)c3=O)cc2n1C [Example 124, 8-(4-chlorophenyl)-6-(1,2-dimethyl-1H-benzo[d]imidazol-6-yl)-2-((2,2,2-trifluoroethyl)amino)pyrido[4,3-d]pyrimidin-7(6H)-one] |
| > 7.00 | > 7.00 | 5.00 to 7.00 | < 5.00 | CCOc1ccc2cn(-c3ccc4nnccc4c3)c(=O)c(-c3ccc(Cl)cc3)c2n1 [Example 245, 8-(4-chlorophenyl)-6-(cinnolin-6-yl)-2-ethoxy-1,6-naphthyridin-7(6H)-one] |
| > 7.00 | > 7.00 | > 7.00 | 5.00 to 7.00 | Cn1cc2cc(-n3cc4ccc(OCC(F)F)nc4c(-c4ccc(OC(F)(F)F)nc4)c3=O)ccc2n1 [Example 125-A] |
| > 7.00 | > 7.00 | > 7.00 | < 5.00 | Cn1cc2cc(-n3cc4ccc(NCC(F)(F)F)nc4c(-c4ccc(C5CC5)nc4)c3=O)ccc2n1 [Example 212, 8-(6-cyclopropylpyridin-3-yl)-6-(2-methyl-2H-indazol-5-yl)-2-((2,2,2-trifluoroethyl)amino)-1,6-naphthyridin-7(6H)-one] |
| > 7.00 | > 7.00 | > 7.00 | 5.00 to 7.00 | [2H]C([2H])([2H])Oc1ccc(-c2c(=O)n(-c3ccc4nn(C)cc4c3)cc3ccc(OCC(F)F)nc23)cc1 [Example 115-A] |
| > 7.00 | > 7.00 | 5.00 to 7.00 | 5.00 to 7.00 | Cn1cc2cc(-n3cc4ccc(OCC(F)(F)F)nc4c(-c4ccc(OC(F)(F)F)nc4)c3=O)ccc2n1 [Example 131-A] |
| > 7.00 | > 7.00 | 5.00 to 7.00 | < 5.00 | CCOc1ncc2cn(-c3ccc4nn(C)cc4c3)c(=O)c(-c3ccc(OC(F)F)cc3)c2n1 [Example 272, 8-(4-(difluoromethoxy)phenyl)-2-ethoxy-6-(2-methyl-2H-indazol-5-yl)pyrido[4,3-d]pyrimidin-7(6H)-one] |
| > 7.00 | > 7.00 | > 7.00 | 5.00 to 7.00 | O=c1c(-c2ccc(OC(F)F)cc2)c2nc(NCC(F)(F)F)ncc2cn1-c1ccc2ncccc2c1 [Example 159, 8-(4-(difluoromethoxy)phenyl)-6-(quinolin-6-yl)-2-((2,2,2-trifluoroethyl)amino)pyrido[4,3-d]pyrimidin-7(6H)-one] |
| > 7.00 | > 7.00 | > 7.00 | 5.00 to 7.00 | COc1ccc(-c2c(=O)n(-c3ccc4nn(C)cc4c3)cc3ncc(OCC(F)F)nc23)cc1 [Example 141-A] |
| > 7.00 | > 7.00 | > 7.00 | 5.00 to 7.00 | CCOc1ccc2cn(-c3ccc4nn(C)cc4c3)c(=O)c(-c3cnc(C(F)(F)F)nc3)c2n1 [Example 119-A] |
| > 7.00 | > 7.00 | 5.00 to 7.00 | 5.00 to 7.00 | COc1ccc(-n2cc3cnc(NCC(F)F)nc3c(-c3ccc(Br)cc3)c2=O)cc1 [Example 189, 8-(4-bromophenyl)-2-((2,2-difluoroethyl)amino)-6-(4-methoxyphenyl)pyrido[4,3-d]pyrimidin-7(6H)-one] |
| > 7.00 | > 7.00 | 5.00 to 7.00 | < 5.00 | CCOc1ccc2cn(-c3ccc4nn(C)cc4c3)c(=O)c(-c3ccc(OC(F)(F)F)cc3)c2n1 [Example 217, 2-ethoxy-6-(2-methyl-2H-indazol-5-yl)-8-(4-(trifluoromethoxy)phenyl)-1,6-naphthyridin-7(6H)-one] |
